Assay results reported in article PMC11227529, “An in-situ peptide-antibody self-assembly to block CD47 and CD24 signaling enhances macrophage-mediated phagocytosis and anti-tumor immune responses” (Nature Communications, 2024).
Like-named read-outs stand apart in the source and are kept apart here.

Key:
[1] = tested on: 4T1 subcutaneous tumor; assay: Ex vivo NIR fluorescence of tumor and major organs, 48 h; format: in vivo, mouse
From the text: (§1) After the intravenous administration of free Cy5.5, ^Cy5.5SAMIs, and ^Cy5.5PAC-SABIs, the mice were euthanized at the 48-h mark, and the heart, liver, spleen, lung, kidney, and tumor were harvested for ex vivo imaging (Fig. 5e, f). […] Despite the observed retention in metabolic organs such as the liver and kidney, distinct variations in tissue distribution were noted between ^Cy5.5SAMIs and ^Cy5.5PAC-SABIs (Fig. 5e, f and Supplementary Fig. 30). Specifically, ^Cy5.5PAC-SABIs achieved a marked selective enrichment in both BC and PC tumors. […] The discernible dissimilarity between these two molecules could be attributed to the presence of targeted ligands and EISA, which augmented the precise recognition of ^Cy5.5PAC-SABIs toward cancer cells and facilitated their proficient molecular assembly. To further observe the distribution of ^Cy5.5PAC-SABIs in the BC and PC tissues, we analyzed the Cy5.5 fluorescence of tumor sections. […] Moreover, we employed SEM imaging to visualize the in situ self-assembly morphology of PAC-SABIs.
(§2) To obtain breast and pancreatic subcutaneous xenografts, 1 × 10^6 4T1 or PAN02 cells were implanted into the right hind limb of BALB/c and C57BL/6 mice, respectively. When the tumor size reached ≈ 50 mm^3, mice were randomly sorted into free Cy5.5, ^Cy5.5SAMIs, and ^Cy5.5PAC-SABIs groups. The 4T1 and PAN02 tumor-bearing mice were correspondingly intravenously injected with free Cy5.5, ^Cy5.5SAMIs, and ^Cy5.5PAC-SABIs (the dose of Cy5.5 was 1 mg/kg) for in vivo fluorescence imaging with IVIS system (Perkin Elmer, USA). Then, the mice were sacrificed to collect the major organs (heart, liver, spleen, lung, and kidney) and tumors for ex vivo fluorescence imaging. Finally, the 4T1 and PAN02 tumors were embedded in Tissue-Tek OCT compound (Sakura, Japan), and cryosections of 8 µm thickness were prepared. The Cy5.5 signal was detected using a fluorescence microscope (Nikon, Japan).
(§3) Supplementary Fig. 30 Quantification analysis of the ex vivo NIR fluorescence intensity in tumors and major organs. a Quantitative calculation of average fluorescence signal in 4T1 tumor and major organ area. The error bars represent the mean ± SD (n = 3 mice; ****p < 0.0001; the p value was analyzed by a two-tailed unpaired Student’s t-test).b Quantitative calculation of average fluorescence signal in PAN02 tumor and major organ area. The error bars represent the mean ± SD (n = 3 mice; ****p < 0.0001; the p value was analyzed by a two-tailed unpaired Student’s t-test).Source data are provided as a Source Data file.
(§4) (1 picture or pasted object on this page, not shown here)

[2] = tested on: PAN02 subcutaneous tumor; format: in vivo, mouse
From the text: as §1, §2, §3, §4

With cyanine 5.5 [free Cy5.5] the “ex vivo NIR fluorescence accumulation” value ([1]; 4T1 and PAN02 tumor-bearing mice, 48 h after i.v. injection, tumors and major organs) was “negligible accumulation in the tumors and major organs”, the Average radiant efficiency ([1]; 4T1 tumor, replicate 1) was 0.156 × 10^3 P/Sec and the Average radiant efficiency ([1]; 4T1 tumor, replicate 2) was 0.054 × 10^3 P/Sec. For the same substance, the Average radiant efficiency ([1]; 4T1 tumor, replicate 3) was 0.174 × 10^3 P/Sec, the Average radiant efficiency ([1]; Heart, 4T1 model, replicate 1) was 0.085 × 10^3 P/Sec and the Average radiant efficiency ([1]; Heart, 4T1 model, replicate 2) was 0.174 × 10^3 P/Sec. For the same substance, the Average radiant efficiency ([1]; Heart, 4T1 model, replicate 3) was 0.168 × 10^3 P/Sec, the Average radiant efficiency ([1]; Kidney, 4T1 model, replicate 1) was 0.115 × 10^3 P/Sec and the Average radiant efficiency ([1]; Kidney, 4T1 model, replicate 2) was 0.12 × 10^3 P/Sec. The Average radiant efficiency ([1]; Kidney, 4T1 model, replicate 3) was 0.073 × 10^3 P/Sec, the Average radiant efficiency ([1]; Liver, 4T1 model, replicate 1) was 0.118 × 10^3 P/Sec and the Average radiant efficiency ([1]; Liver, 4T1 model, replicate 2) was 0.061 × 10^3 P/Sec. The Average radiant efficiency ([1]; Liver, 4T1 model, replicate 3) was 0.22 × 10^3 P/Sec, the Average radiant efficiency ([1]; Lung, 4T1 model, replicate 1) was 0.137 × 10^3 P/Sec and the Average radiant efficiency ([1]; Lung, 4T1 model, replicate 2) was 0.09 × 10^3 P/Sec. The Average radiant efficiency ([1]; Lung, 4T1 model, replicate 3) was 0.095 × 10^3 P/Sec, the Average radiant efficiency ([1]; Spleen, 4T1 model, replicate 1) was 0.157 × 10^3 P/Sec and the Average radiant efficiency ([1]; Spleen, 4T1 model, replicate 2) was 0.112 × 10^3 P/Sec. For the same substance, the Average radiant efficiency ([1]; Spleen, 4T1 model, replicate 3) was 0.069 × 10^3 P/Sec, the Average radiant efficiency ([2]; Heart, PAN02 model, replicate 1) was 0.069 × 10^3 P/Sec and the Average radiant efficiency ([2]; Heart, PAN02 model, replicate 2) was 0.108 × 10^3 P/Sec. For the same substance, the Average radiant efficiency ([2]; Heart, PAN02 model, replicate 3) was 0.122 × 10^3 P/Sec, the Average radiant efficiency ([2]; Kidney, PAN02 model, replicate 1) was 0.064 × 10^3 P/Sec and the Average radiant efficiency ([2]; Kidney, PAN02 model, replicate 2) was 0.137 × 10^3 P/Sec. The Average radiant efficiency ([2]; Kidney, PAN02 model, replicate 3) was 0.152 × 10^3 P/Sec, the Average radiant efficiency ([2]; Liver, PAN02 model, replicate 1) was 0.094 × 10^3 P/Sec and the Average radiant efficiency ([2]; Liver, PAN02 model, replicate 2) was 0.126 × 10^3 P/Sec. The Average radiant efficiency ([2]; Liver, PAN02 model, replicate 3) was 0.145 × 10^3 P/Sec, the Average radiant efficiency ([2]; Lung, PAN02 model, replicate 1) was 0.056 × 10^3 P/Sec and the Average radiant efficiency ([2]; Lung, PAN02 model, replicate 2) was 0.103 × 10^3 P/Sec. The Average radiant efficiency ([2]; Lung, PAN02 model, replicate 3) was 0.159 × 10^3 P/Sec, the Average radiant efficiency ([2]; PAN02 tumor, replicate 1) was 0.125 × 10^3 P/Sec and the Average radiant efficiency ([2]; PAN02 tumor, replicate 2) was 0.056 × 10^3 P/Sec. For the same substance, the Average radiant efficiency ([2]; PAN02 tumor, replicate 3) was 0.141 × 10^3 P/Sec, the Average radiant efficiency ([2]; Spleen, PAN02 model, replicate 1) was 0.046 × 10^3 P/Sec and the Average radiant efficiency ([2]; Spleen, PAN02 model, replicate 2) was 0.093 × 10^3 P/Sec. For the same substance, the Average radiant efficiency ([2]; Spleen, PAN02 model, replicate 3) was 0.157 × 10^3 P/Sec.
